The target of assay [1] is T1, Mitogen-activated protein kinase kinase kinase 5 (Homo sapiens) (UniProt Q99683).
T1 sequence (whole entry): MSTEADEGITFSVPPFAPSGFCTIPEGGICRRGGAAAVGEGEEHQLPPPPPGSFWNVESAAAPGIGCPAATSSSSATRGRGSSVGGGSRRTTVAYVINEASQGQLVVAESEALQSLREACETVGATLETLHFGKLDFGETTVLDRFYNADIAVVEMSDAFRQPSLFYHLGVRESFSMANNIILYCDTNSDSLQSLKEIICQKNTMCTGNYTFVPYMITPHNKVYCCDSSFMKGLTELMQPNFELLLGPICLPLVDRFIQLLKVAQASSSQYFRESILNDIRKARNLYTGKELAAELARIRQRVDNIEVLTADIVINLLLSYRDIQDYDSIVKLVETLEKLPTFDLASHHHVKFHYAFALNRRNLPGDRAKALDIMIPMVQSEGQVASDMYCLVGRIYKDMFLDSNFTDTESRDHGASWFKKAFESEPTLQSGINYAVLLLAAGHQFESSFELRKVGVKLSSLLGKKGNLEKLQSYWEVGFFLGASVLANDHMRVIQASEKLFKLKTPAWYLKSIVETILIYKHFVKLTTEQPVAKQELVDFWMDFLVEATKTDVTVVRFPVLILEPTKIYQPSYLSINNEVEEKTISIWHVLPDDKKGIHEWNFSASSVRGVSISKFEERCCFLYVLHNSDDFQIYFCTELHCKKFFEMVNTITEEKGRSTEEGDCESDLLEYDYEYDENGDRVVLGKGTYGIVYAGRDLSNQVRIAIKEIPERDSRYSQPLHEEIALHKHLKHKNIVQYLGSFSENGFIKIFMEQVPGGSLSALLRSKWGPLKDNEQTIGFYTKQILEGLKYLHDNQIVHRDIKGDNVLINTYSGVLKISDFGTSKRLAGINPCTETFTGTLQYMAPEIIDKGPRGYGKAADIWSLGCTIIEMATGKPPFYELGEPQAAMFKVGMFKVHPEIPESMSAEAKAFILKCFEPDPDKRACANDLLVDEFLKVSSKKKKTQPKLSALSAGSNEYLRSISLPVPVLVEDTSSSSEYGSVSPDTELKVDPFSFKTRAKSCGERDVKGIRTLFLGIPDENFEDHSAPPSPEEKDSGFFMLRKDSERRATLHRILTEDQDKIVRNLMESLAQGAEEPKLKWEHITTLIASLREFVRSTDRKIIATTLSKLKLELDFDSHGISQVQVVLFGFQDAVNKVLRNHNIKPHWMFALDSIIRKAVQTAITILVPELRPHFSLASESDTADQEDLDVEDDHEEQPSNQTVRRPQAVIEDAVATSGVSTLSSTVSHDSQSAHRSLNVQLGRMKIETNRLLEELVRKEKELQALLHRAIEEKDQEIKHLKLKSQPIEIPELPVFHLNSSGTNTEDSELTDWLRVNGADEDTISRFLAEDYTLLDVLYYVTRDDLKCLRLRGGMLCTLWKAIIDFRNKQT
As to the kind of experiment: Selectivity interaction (ActivX KiNativ screen (kinase selectivity in THP-1 cell lysates)) EUB0000639a MAP3K5. As to conditions: lysate. Type of assay: subcellular.

The target of assay [2] is Ribosomal protein S6 kinase alpha-2 (Homo sapiens) (UniProt Q15349). As to the kind of experiment: Selectivity interaction (ActivX KiNativ screen (kinase selectivity in THP-1 cell lysates)) EUB0000639a RPS6KA2. The format is subcellular. As to conditions: lysate, at 1 µM.
Assay [3] has as its target T2, Serine/threonine-protein kinase TAO1 (Homo sapiens) (UniProt Q7L7X3).
T2 sequence (whole entry): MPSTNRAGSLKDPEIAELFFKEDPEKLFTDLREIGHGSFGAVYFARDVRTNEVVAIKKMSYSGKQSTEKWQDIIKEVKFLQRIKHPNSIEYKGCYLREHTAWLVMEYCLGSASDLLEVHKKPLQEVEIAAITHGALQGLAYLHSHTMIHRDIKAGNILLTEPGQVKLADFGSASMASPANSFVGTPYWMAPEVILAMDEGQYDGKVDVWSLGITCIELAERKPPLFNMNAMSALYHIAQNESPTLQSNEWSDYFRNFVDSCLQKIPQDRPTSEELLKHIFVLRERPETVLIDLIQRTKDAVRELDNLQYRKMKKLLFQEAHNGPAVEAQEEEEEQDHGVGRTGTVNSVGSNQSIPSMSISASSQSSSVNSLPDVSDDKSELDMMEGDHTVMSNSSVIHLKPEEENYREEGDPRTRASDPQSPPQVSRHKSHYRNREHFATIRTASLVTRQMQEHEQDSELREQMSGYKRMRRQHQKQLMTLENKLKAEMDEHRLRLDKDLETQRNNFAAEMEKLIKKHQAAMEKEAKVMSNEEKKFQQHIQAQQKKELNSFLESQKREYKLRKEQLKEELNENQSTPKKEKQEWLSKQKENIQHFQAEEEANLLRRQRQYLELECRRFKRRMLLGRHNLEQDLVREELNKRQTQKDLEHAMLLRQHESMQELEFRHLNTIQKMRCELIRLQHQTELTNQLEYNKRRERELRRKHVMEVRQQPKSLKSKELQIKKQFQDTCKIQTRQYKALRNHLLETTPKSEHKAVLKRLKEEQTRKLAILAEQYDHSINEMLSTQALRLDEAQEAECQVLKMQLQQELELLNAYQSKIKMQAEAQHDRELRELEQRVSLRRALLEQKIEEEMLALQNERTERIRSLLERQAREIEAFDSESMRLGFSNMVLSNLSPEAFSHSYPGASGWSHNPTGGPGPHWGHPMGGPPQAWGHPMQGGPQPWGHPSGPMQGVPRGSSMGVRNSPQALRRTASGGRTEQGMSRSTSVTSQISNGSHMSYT
As to the kind of experiment: Selectivity interaction (Kinase panel (KiNativ target engagement assay in Jurkat cells)) EUB0001635a TAOK1. The format is cell-based. The conditions noted are these: Selectivity number of off-targets 0.0, Selectivity number of targets 233.0, Source Knowledge https://www.sciencedirect.com/science/article/pii/S2451945619300674?via%3Dihub, at 1 µM.

Chain of Ribosomal protein S6 kinase alpha-2 (Homo sapiens) (Q15349 whole entry): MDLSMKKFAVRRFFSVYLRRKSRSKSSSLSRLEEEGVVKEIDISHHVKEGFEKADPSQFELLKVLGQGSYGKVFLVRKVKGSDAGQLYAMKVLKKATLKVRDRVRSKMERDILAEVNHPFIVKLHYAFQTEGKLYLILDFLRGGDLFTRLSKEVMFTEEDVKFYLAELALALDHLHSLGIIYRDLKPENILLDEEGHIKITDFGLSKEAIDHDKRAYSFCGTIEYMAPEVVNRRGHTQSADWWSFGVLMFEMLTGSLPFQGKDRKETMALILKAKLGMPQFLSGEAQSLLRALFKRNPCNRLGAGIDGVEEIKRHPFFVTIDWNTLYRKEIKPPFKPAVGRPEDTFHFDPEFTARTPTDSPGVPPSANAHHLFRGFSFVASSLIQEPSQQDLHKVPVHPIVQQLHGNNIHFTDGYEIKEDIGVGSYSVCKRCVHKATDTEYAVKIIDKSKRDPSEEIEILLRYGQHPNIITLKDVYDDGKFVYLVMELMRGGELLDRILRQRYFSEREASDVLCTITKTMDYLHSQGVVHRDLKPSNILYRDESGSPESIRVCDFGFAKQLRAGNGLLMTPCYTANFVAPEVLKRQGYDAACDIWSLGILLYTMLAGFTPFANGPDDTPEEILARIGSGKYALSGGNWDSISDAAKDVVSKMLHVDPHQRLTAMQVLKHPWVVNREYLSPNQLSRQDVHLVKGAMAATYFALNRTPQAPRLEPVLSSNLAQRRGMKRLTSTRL

As to `CC[C@@H]1[C@H](F)C(=O)N[C@@H]1COc1nccc2cc(C(N)=O)c(OC)cc12` [ZIMLOVISERTIB], the % of inhibition in assay [1] (at 0.01 µM) is -12.1%; in assay [1] (at 0.04 µM), -3.2%; in assay [1] (at 0.2 µM), 0%; in assay [1] (at 1 µM) it was -6.5%; in assay [1] (at 5 µM) it was -21.9%; in assay [2], 8%.
For `C=CC(=O)Nc1ccc(C(=O)Nc2[nH]nc3c2CN(C(=O)N[C@H](CN(C)C)c2ccccc2)C3(C)C)cc1`, the % of engagement in assay [3] was -0.7%.

(Values after ChEMBL document CHEMBL5465560, “Selectivity Literature for EUbOPEN Chemogenomic Library” (2024).)
